{
  "source": "patent US20250204541A1",
  "about": "“GAS PHASE TREATMENT OF PRODUCE” (priority 2022, published 2025)",
  "format_in_all_cases": "in vivo",
  "key": {"[1]": {"system": "avocados", "test": "Durometer shore (ripening/firmness) of treated avocados", "conditions": "for average increase of durometer shore over the uninfected and untreated avocados: Example 22", "experimental": "Example 9. The antifungal activity of a range of AITC and carvacrol vapor exposure times was tested against Cg in avocados. To measure the effect of the various treatments on ripening, durometer shore was taken after 7 days of incubation at ambient temperature and high humidity. All samples were wounded by removing the stem and infected by dispensing 1000 Cg spores suspended in 10 μL of water in the wound. The test groups consisted of avocados that were: infected and left untreated on the benchtop; infected and left untreated under a fume hood; exposed to the vapor of 3 mL of AITC in a Petri dish for 24 hours, 48 hours, and 72 hours; and exposed to the vapor of 3 mL of carvacrol in a Petri dish for 72 hours. FIG. 11 quantifies the infection results. […] All exposure times to AITC vapor reduced the incidence of Cg mold compared to the untreated samples. A 24 hour AITC exposure reduced the incidence of Cg mold by 90%. A 48 hour AITC exposure reduced the incidence of Cg mold by 97%. A 72 hour AITC exposure reduced the incidence of Cg mold by 83%.\nExample 10. The antifungal activity of a range of AITC vapor exposure times were tested against Cg in avocados. To measure the effect of the various treatments on ripening, durometer shore was taken after 6 days of incubation at ambient temperature and high humidity. All samples were wounded by removing the stem and infected by dispensing 1000 Cg spores suspended in 10 μL of water in each wound. The test groups consisted of avocados that were: infected and left untreated on the benchtop; infected and left untreated in a fume hood; exposed to the vapor of 3 mL of AITC in a Petri dish for 24 hours, 48 hours, and 72 hours. FIG. 13 quantifies the infection results. […] All exposure times to AITC vapor reduced the incidence of Cg mold compared to the untreated samples.\nExample 21. The antifungal activity of avocados exposed to AITC vapor and prochloraz was tested against Cg in avocados. To measure the effect of the various treatments on ripening, durometer shore was taken after 5 days of incubation at ambient temperature (about 20° C. to about 25° C.) and high humidity (about 88% relative humidity to about 93% relative humidity). All samples were wounded by removing the stem and infected by dispensing 1000 Cg spores suspended in 10 μL of water in the wound. Exposure to vapor was done by placing the avocados in an airtight container, dispensing AITC onto Whatman filter paper discs, suspending the discs in front of a battery-powered fan, closing the container and incubating the avocados for 30 minutes. After vapor exposure, the avocados were left at ambient temperature, high humidity, and assessed for Cg mold on day 5. Treatment groups consisted of avocados that were: exposed for 30 minutes to the vapor of 125 μL of AITC disposed on a filter paper disc; dipped in a solution of 0.1 g/L of prochloraz and placed to dry on a rack in front of a fan for 30 min; infected and left untreated; and uninfected and untreated. […] To prepare the 0.1 g/L of prochloraz, 10 mg of prochloraz was mixed with 10 mL of ethanol and 90 mL of water. […] A 24 hour AITC exposure reduced the incidence of Cg mold by 90%. […] The mean shore value for the untreated avocados was 28.8 (standard deviation (SD)=10.8). The mean shore value for the infected avocados was 47.3 (SD=11.8). The mean shore value of the positive control, prochloraz treated avocados was 44.3 (SD=14.7). The mean shore value of the AITC treated avocados was 61.1 (SD=10.5).\nDurometer Shore Measurement: A Fruit Hardness Tester—HPE III Fff w/Sphere Ø 5.0 mm Test Anvil is used for the measurements. The Operating Procedure is as follows: • 1) At room temperature and 1 atm pressure, switch on the measuring device and press the hull or sleeve against the specimen so that the contact surface of the pressure plate rests on the fruit. […]"}, "[2]": {"system": "Penicillium digitatum (Pd)", "test": "Antifungal activity of vapor against Penicillium digitatum in wounded, infected mandarins", "conditions": "for effect on Pd infection: airtight container with fan, 18 hours, then 6 days; for infected: 125 μL, 30 minutes"}, "[3]": {"system": "mold", "test": "Mold growth on produce exposed to AITC in an airtight bin (general description)", "conditions": "for effect on mold growth on the produce: AITC concentration of 1000 ppm, airtight bin", "experimental": "The plurality of produce items is contacted with the antimicrobial agent for a length of time in a range of 1 minute to 100 hours (e.g., 10 minutes to 1 hour). The length of time is dependent on a variety of factors, such as type of produce, target pathogen, and the degree to which the enclosure is sealed. Examples include exposure times between 15 minutes and 96 hours for allyl isothiocyanate (AITC) in an airtight bin. […] Lower antimicrobial agent concentrations with longer exposure times or higher antimicrobial concentrations with shorter exposure times can also be used. For example, the plurality of produce items is contacted with the antimicrobial agent for a length of time in a range of 15 minute to 72 hours.\nA concentration of the antimicrobial agent in the headspace of the enclosure is typically in a range of about 20 parts per million by volume (ppmv) to about 5000 ppmv (e.g., about 550 ppmv to about 4800 ppmv, or about 25 ppmv to about 1250 ppmv). Depending on type of produce and exposure time in the enclosure, antimicrobial agent concentrations greater than about 2200 ppmv can sometimes damage the produce. […] In some embodiments, the antimicrobial agent is provided in a concentration to the enclosure in a headspace at least about 1200 ppmv, at least about 1250 ppmv, or about 1250 ppmv to about 5000 ppmv, or about 1250 ppmv to about 4900 ppmv."}, "[4]": {"system": "Botrytis cinerea (Bc)", "test": "Antifungal activity of AITC vapor against Botrytis cinerea in strawberries", "conditions": "Example 17; suspended strawberries; coating agent 50 g/L dip; AITC 125 μL 30 minutes; by day 5"}},
  "data": [
    {"smiles": "C=CCN=C=S", "note": "[AITC, allyl isothiocyanate]", "values": [
      {"measurement": "average increase of durometer shore over the untreated avocados", "setting": "[1]; Example 9, Cg-infected avocados, all AITC treatments (3 mL, 24, 48, 72 hours), after 7 days, P value<0.0001", "result": 20.3, "unit": "shore"},
      {"measurement": "average increase of durometer shore over the infected avocados", "setting": "[1]; Example 10, Cg-infected avocados, all AITC treatments (3 mL, 24, 48, 72 hours), after 6 days, P value<0.005", "result": 15.4, "unit": "shore"},
      {"measurement": "higher durometer shore than the untreated avocados", "setting": "[1]; Example 21, Cg-infected avocados, 125 μL, 30 minutes, after 5 days", "result": "more than 30 shore"},
      {"measurement": "mean shore value", "setting": "[1]; Example 21, Cg-infected avocados, after 5 days, AITC 125 μL vapor 30 minutes, prochloraz 0.1 g/L dip", "result": "61.1 (SD=10.5) shore"},
      {"measurement": "average increase of durometer shore over the uninfected and untreated avocados", "setting": "[1]; Cg-infected avocados, 250 μL, 30 minutes, after 5 days, P value=0.0016", "result": "about 10 shore"},
      {"measurement": "average increase of durometer shore over the uninfected and untreated avocados", "setting": "[1]; Cg-infected avocados, 500 μL, 30 minutes, after 5 days, P value<0.0001", "result": "about 28.5 shore"},
      {"measurement": "average increase of durometer shore over the untreated avocados", "setting": "[1]; Example 23, avocados, after 11 days, coating agent 40 g/L dip, AITC vapor of 500 μL, P value<0.0001", "result": 22.5, "unit": "shore"},
      {"measurement": "effect on Pd infection at 50% of the minimum inhibitory concentration", "setting": "[2]; 62.5 μL AITC vapor for 30 minutes, assessed after 6 days", "result": "tends to reduce the severity of infection, but not eliminate the incidence of infection"},
      {"measurement": "effect on Pd infection", "setting": "[2]; 62.5 μL on filter paper disc", "result": "reduced the severity of infection relative to the untreated group"},
      {"measurement": "effect on Pd mold", "setting": "[2]; 125 μL on filter paper, airtight container, 2 hour exposure, assessed after 6 days", "result": "substantially eliminated the mold"},
      {"measurement": "effect on Pd infection", "setting": "[2]; 500 μL on filter paper disc", "result": "substantially prevented the growth mold"},
      {"measurement": "infected", "setting": "[2]; treated 24 hours after infection, assessed after 6 days", "result": 8.3, "unit": "%"},
      {"measurement": "infected", "setting": "[2]; treated 48 hours after infection, assessed after 6 days", "result": 25, "unit": "%"},
      {"measurement": "infected", "setting": "[2]; treated 72 hours after infection, assessed after 6 days", "result": 16.7, "unit": "%"},
      {"measurement": "infected", "setting": "[2]; treated 96 hours after infection, assessed after 6 days", "result": 81.6, "unit": "%"},
      {"measurement": "infected", "setting": "[2]; treated immediately after infection (0 hours), assessed after 6 days", "result": 58.3, "unit": "%"},
      {"measurement": "effect on mold growth on the produce", "setting": "[3]; exposure time of 15 minutes", "result": "slowed mold growth on the produce"},
      {"measurement": "effect on mold growth on the produce", "setting": "[3]; exposure time of 30 min or longer", "result": "showed good efficacy"},
      {"measurement": "effect on mold growth", "setting": "[3]; AITC concentrations in a range of 550 ppmv to 4800 ppmv", "result": "some inhibitory effect on mold growth"},
      {"measurement": "effect on mold growth", "setting": "[3]; AITC concentrations over 1000 ppmv", "result": "tended to be completely inhibitory"},
      {"measurement": "reduction in incidence of mold versus the untreated test group", "setting": "[4]", "result": "over 80%"}
    ]}
  ]
}
